Consider 1 substance from patent publication US20120100071A1, “SYNTHESIS AND USE OF RADIOLABELLED INSULIN ANALOGUES” (priority 2009, published 2012).

The assay has as its system Akt1 phosphorylation (S473) in H4IIE cells. Nature of the assay: Akt1 activation, phospho-Akt1 (Ser473) ELISA. In kind it is cell-based. Particulars: FIG. 10c. On the procedure: The insulin receptor autophosphorylation was assessed through the use of an enzyme-linked immunosorbant assay (ELISA). […] Finally, to probe the downstream signaling resulting from insulin binding, a second ELISA experiment was performed to monitor stimulation of Akt phosphorylation (S473).
Confluent H4IIE cells were serum deprived for 4 hours in […] β-mercaptoethanol and 0.25% bovine serum albumin. […] Cells were lysed in 0.5 ml 1× Cell Lysis Buffer (Cell Signaling, #7160) and cells broken open by brief sonication. Lysates were collected and centrifuged for 10 minutes at 14,000 rpm. Supernatants were recovered, diluted 1:1 with Sample Diluent, and phospho-Akt1 was quantitated in 100 μL of each diluted supernatant using the PathScan phospho-Akt1 (Ser473) ELISA (Cell Signaling, #7160).
On the technique in general: In an ELISA, binding on a coated surface is turned into a signal by an enzyme label.

Turning to “B^1-[Re(CO)3{bis(2-pyridylmethyl)pentanoyl-6-aminohexanoyl)}]insulin [compound 6]”, the “Akt phosphorylation (S473) response compared to unmodified human insulin” value is on record as “not significantly different”.
